IC50 data for 29 compounds are collected here from patent US20230174530A1, “N-(PHENYLAMINOCARBONYL) TETRAHYDRO-ISOQUINOLINES AND RELATED COMPOUNDS AS MODULATORS OF GPR65” (PATHIOS THERAPEUTICS LIMITED, priority 2020, published 2023).

Structures are written as SMILES.

T1 sequence (Q8IYL9 whole entry): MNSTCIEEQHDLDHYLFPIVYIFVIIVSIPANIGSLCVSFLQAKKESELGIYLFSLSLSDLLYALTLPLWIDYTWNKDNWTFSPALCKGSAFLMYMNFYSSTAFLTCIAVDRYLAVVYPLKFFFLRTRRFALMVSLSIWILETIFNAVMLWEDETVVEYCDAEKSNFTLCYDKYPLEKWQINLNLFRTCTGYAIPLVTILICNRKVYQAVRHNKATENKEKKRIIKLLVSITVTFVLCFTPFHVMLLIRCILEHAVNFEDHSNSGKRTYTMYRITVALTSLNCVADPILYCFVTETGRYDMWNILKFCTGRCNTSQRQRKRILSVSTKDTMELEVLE

This assay addresses T1, human recombinant GPR65 (Homo sapiens, UniProt Q8IYL9).
T1 construct: host or cells: 1321N1 human astrocytoma cells (1321N1-hrGPR65)
As to the kind of experiment: Human GPR65 cAMP HTRF antagonist assay. Format: cell-based. As to conditions: 1321N1-hrGPR65 cells stimulated at assay pH 7.2; suppression of cAMP rise; read-out: hGPR65 IC50. An outline of the steps: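 1321N1 astrocytoma cells stably expressing human GPR65, 2,000 per well in KRH with 1 mM IBMX and 200 μM EDTA, preincubated 30 min with compound at RT. Acid stimulation at pH 7.2 for 30 min, pH 7.9 as control. cAMP read by HTRF 665/620 ratio; IC50 from normalised 4-parameter fit.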
As for `O=C(Nc1ccc(Cl)c(C(F)(F)F)c1)N1CCc2ccncc2C1` [Compound 16, N-(4-Chloro-3-(trifluoromethyl)phenyl)-3,4-dihydro-2,7-naphthyridine-2(1H)-carboxamide], the IC50 is 0.5 to 5 µM.

Turning to `Cc1cccc2c1CN(C(=O)Nc1ccc(C(F)(F)F)c(Cl)c1)CC2` [Compound 29, N-(3-Chloro-4-(trifluoromethyl)phenyl)-8-methyl-3,4-dihydroisoquinoline-2(1H)-carboxamide], the IC50 was in the range of 0.5 to 5 µM.

In the case of `COc1ccc2c(c1)CN(C(=O)Nc1ccc(C(F)(F)F)c(Cl)c1)CC2` [Compound 63, N-(3-Chloro-4-(trifluoromethyl)phenyl)-7-methoxy-3,4-dihydroisoquinoline-2(1H)-carboxamide], the IC50 fell in the range of 0.5 to 5 µM.

In the case of `O=C(Nc1ccc(C(F)(F)F)c(Cl)c1)N1CCc2nccnc2C1` [Compound 24, N-(3-Chloro-4-(trifluoromethyl)phenyl)-7,8-dihydropyrido[3,4-b]pyrazine-6(5H)-carboxamide], the IC50 is above 5 µM.

In the case of `N#Cc1cc2c(cn1)CN(C(=O)Nc1ccc(Cl)c(Cl)c1)CC2` [Compound 102, 6-Cyano-N-(3,4-dichlorophenyl)-3,4-dihydro-2,7-naphthyridine-2(1H)-carboxamide], the IC50 fell in the range of 0.5 to 5 µM.

In the case of `O=C(Nc1ccc(Cl)c(Cl)c1)N1CCc2ccccc2C1` [Compound 81, N-(3,4-Dichlorophenyl)-3,4-dihydroisoquinoline-2(1H)-carboxamide], the IC50 fell in the range of 0.5 to 5 µM.

On to `O=C(Nc1ccc(C(F)(F)F)c(Cl)c1)N1CCc2ncccc2C1` [Compound 22, N-(3-Chloro-4-(trifluoromethyl)phenyl)-7,8-dihydro-1,6-naphthyridine-6(5H)-carboxamide], for which the IC50 is above 5 µM.

As for `O=C(Nc1ccc(Cl)c(Cl)c1)N1CCc2cccnc2C1` [Compound 18, N-(3,4-Dichlorophenyl)-5,8-dihydro-1,7-naphthyridine-7(6H)-carboxamide], the IC50 is above 5 µM.

Regarding `O=C(Nc1ccc(Cl)cc1)N1CCc2ncncc2C1` [Compound 2, N-(4-Chlorophenyl)-7,8-dihydropyrido[4,3-d]pyrimidine-6(5H)-carboxamide], the IC50 is above 5 µM.

Regarding `COC(=O)c1cc2c(cn1)CN(C(=O)Nc1ccc(C(F)(F)F)c(Cl)c1)CC2` [Compound 129, Methyl 7-((3-chloro-4-(trifluoromethyl)phenyl)carbamoyl)-5,6,7,8-tetrahydro-2,7-naphthyridine-3-carboxylate], the IC50 was in the range of 0.5 to 5 µM.

On to `O=C(Nc1ccc(C(F)(F)F)c(Cl)c1)N1CCc2ccc(F)cc2C1` [Compound 33, N-(3-Chloro-4-(trifluoromethyl)phenyl)-7-fluoro-3,4-dihydroisoquinoline-2(1H)-carboxamide], for which the IC50 is below 0.5 µM.

Take `O=C(Nc1ccc(C(F)(F)F)c(Cl)c1)N1CCc2cnccc2C1` [Compound 14, N-(3-Chloro-4-(trifluoromethyl)phenyl)-3,4-dihydro-2,6-naphthyridine-2(1H)-carboxamide]: the IC50 is below 0.5 µM.

On to `O=C(Nc1ccc(Cl)c(Cl)c1)N1CCc2[nH]c(=O)ncc2C1` [Compound 88, N-(3,4-Dichlorophenyl)-2-oxo-1,5,7,8-tetrahydropyrido[4,3-d]pyrimidine-6(2H)-carboxamide], for which the IC50 fell in the range of 0.5 to 5 µM.

Turning to `N#Cc1cc2c(cn1)CCN(C(=O)Nc1ccc(Cl)c(Cl)c1)C2` [Compound 103, 7-Cyano-N-(3,4-dichlorophenyl)-3,4-dihydro-2,6-naphthyridine-2(1H)-carboxamide], the IC50 fell in the range of 0.5 to 5 µM.

For the compound `COc1cccc2c1CCN(C(=O)Nc1ccc(Cl)c(C(F)(F)F)c1)C2` [Compound 133, N-(4-Chloro-3-(trifluoromethyl)phenyl)-5-methoxy-3,4-dihydroisoquinoline-2(1H)-carboxamide], the IC50 was in the range of 0.5 to 5 µM.

Turning to `O=C(Nc1ccc(Cl)c(Cl)c1)N1CCc2cc(-c3cccs3)ccc2C1` [Compound 127, N-(3,4-Dichlorophenyl)-6-(thiophen-2-yl)-3,4-dihydroisoquinoline-2(1H)-carboxamide], the IC50 was above 5 µM.

Consider `COc1ccc2c(c1)CN(C(=O)Nc1ccc(Cl)c(C(F)(F)F)c1)CC2` [Compound 62, N-(4-Chloro-3-(trifluoromethyl)phenyl)-7-methoxy-3,4-dihydroisoquinoline-2(1H)-carboxamide], for which the IC50 was above 5 µM.

For the compound `COc1cc2c(cn1)CCN(C(=O)Nc1ccc(C(F)(F)F)c(Cl)c1)C2` [Compound 107, N-(3-Chloro-4-(trifluoromethyl)phenyl)-7-methoxy-3,4-dihydro-2,6-naphthyridine-2(1H)-carboxamide], the IC50 is above 5 µM.

On to `Cc1ccc2c(c1)CN(C(=O)Nc1ccc(Cl)c(Cl)c1)CC2` [Compound 34, N-(3,4-Dichlorophenyl)-7-methyl-3,4-dihydroisoquinoline-2(1H)-carboxamide], for which the IC50 is above 5 µM.

Regarding `O=C(Nc1ccc(Cl)c(Cl)c1)N1CCc2cn3cncc3cc2C1` [Compound 117, N-(3,4-Dichlorophenyl)-6,7-dihydroimidazo[1,5-b][2,6]naphthyridine-8(9H)-carboxamide], the IC50 was below 0.5 µM.

For the compound `O=C(Nc1ccc(Cl)c(Cl)c1)N1CCc2ncccc2C1` [Compound 20, N-(3,4-Dichlorophenyl)-7,8-dihydro-1,6-naphthyridine-6(5H)-carboxamide], the IC50 was above 5 µM.

Take `O=C(Nc1ccc(Cl)c(Cl)c1)N1CCc2ccc(O)cc2C1` [Compound 96, N-(3,4-Dichlorophenyl)-7-hydroxy-3,4-dihydroisoquinoline-2(1H)-carboxamide]: the IC50 was in the range of 0.5 to 5 µM.

For the compound `O=C(Nc1ccc(Cl)c(C(F)(F)F)c1)N1CCc2ncncc2C1` [Compound 5, N-(4-Chloro-3-(trifluoromethyl)phenyl)-7,8-dihydropyrido[4,3-d]pyrimidine-6(5H)-carboxamide], the IC50 was in the range of 0.5 to 5 µM.

Turning to `N#Cc1ccc2c(c1)CN(C(=O)Nc1ccc(Cl)c(Cl)c1)CC2` [Compound 49, 7-Cyano-N-(3,4-dichlorophenyl)-3,4-dihydroisoquinoline-2(1H)-carboxamide], the IC50 lay in the range of 0.5 to 5 µM.

As for `O=C(Nc1ccc(Cl)c(Cl)c1)N1CCc2c[nH]c(=O)cc2C1` [Compound 99, N-(3,4-Dichlorophenyl)-7-oxo-3,4,6,7-tetrahydro-2,6-naphthyridine-2(1H)-carboxamide], the IC50 was above 5 µM.

Turning to `O=C(Nc1ccc(Cl)c(Cl)c1)N1CCc2cnc(F)cc2C1` [Compound 86, N-(3,4-Dichlorophenyl)-7-fluoro-3,4-dihydro-2,6-naphthyridine-2(1H)-carboxamide], the IC50 is 0.5 to 5 µM.

As to `O=C(Nc1ccc(C(F)(F)F)c(Cl)c1)N1CCc2cc[n+]([O-])cc2C1` [Compound 94, 7-((3-Chloro-4-(trifluoromethyl)phenyl)carbamoyl)-5,6,7,8-tetrahydro-2,7-naphthyridine 2-oxide], the IC50 was above 5 µM.

Take `O=C(Nc1ccc(Cl)c(Cl)c1)N1CCc2nc(F)ccc2C1` [Compound 123, N-(3,4-Dichlorophenyl)-2-fluoro-7,8-dihydro-1,6-naphthyridine-6(5H)-carboxamide]: the IC50 is below 0.5 µM.

Consider `O=C(Nc1ccc(Cl)c(C(F)(F)F)c1)N1CCc2cc(F)ccc2C1` [Compound 43, N-(4-Chloro-3-(trifluoromethyl)phenyl)-6-fluoro-3,4-dihydroisoquinoline-2(1H)-carboxamide], for which the IC50 was below 0.5 µM.
